Here are results for 32 compounds from patent US7951829B2, “Benzimidazole modulators of VR1” (Janssen Pharmaceutica NV, priority 2006, dated 2011).

By IC50 is commonly meant the concentration needed to halve the response being measured. A word on the inhibition: it is the drop in the measured response relative to a control, in per cent.

The test addresses T1, hVR1 (Homo sapiens, UniProt Q8NER1).
T1 construct: expressed in transfected cells; host or cells: HEK293
As to the kind of experiment: Human VR1 (hVR1) Functional Assay (FLIPR intracellular calcium, capsaicin challenge). Type of test: cell-based. The note with it: capsaicin 0.030 μM, HEK293 cells expressing hVR1; for inhibition at 1 µM: test concentration 1 μM. Background: Calcium flux is commonly read through the fluorescence of an indicator in the cells.

T1 sequence (Q8NER1 whole entry): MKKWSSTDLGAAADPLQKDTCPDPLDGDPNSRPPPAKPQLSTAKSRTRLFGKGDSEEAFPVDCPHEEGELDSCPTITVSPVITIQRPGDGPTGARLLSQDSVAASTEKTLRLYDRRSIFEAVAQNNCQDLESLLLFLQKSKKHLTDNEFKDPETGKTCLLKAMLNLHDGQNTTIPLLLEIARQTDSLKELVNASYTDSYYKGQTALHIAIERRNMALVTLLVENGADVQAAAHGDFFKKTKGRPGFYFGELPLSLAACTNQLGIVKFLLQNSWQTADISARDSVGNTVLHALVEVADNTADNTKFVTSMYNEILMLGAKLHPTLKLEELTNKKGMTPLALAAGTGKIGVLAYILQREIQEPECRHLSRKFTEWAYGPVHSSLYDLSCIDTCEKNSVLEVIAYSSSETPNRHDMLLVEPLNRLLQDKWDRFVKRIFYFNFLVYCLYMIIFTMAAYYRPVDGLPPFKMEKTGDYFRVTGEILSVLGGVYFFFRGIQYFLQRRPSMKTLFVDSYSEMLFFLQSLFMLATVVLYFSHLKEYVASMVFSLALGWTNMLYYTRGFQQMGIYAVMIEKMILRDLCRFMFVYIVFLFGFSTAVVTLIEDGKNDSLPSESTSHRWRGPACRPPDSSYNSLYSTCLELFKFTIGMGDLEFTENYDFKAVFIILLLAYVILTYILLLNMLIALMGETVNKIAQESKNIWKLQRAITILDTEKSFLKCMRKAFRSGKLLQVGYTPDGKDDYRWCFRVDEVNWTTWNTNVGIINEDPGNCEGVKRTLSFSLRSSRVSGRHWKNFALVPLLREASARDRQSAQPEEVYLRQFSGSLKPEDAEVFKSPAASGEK

Regarding `CNS(=O)(=O)c1ccccc1-c1ccc2[nH]c(/C=C/c3cccc(OC(F)(F)F)c3)nc2c1` [Cpd 344, (E)-N-methyl-2-{2-[2-(3-trifluoromethoxy-phenyl)-vinyl]-1H-benzimidazol-5-yl}-benzenesulfonamide], the IC50 is 24 nM and the inhibition at 1 µM was 101%.

Consider `Cc1cccc(-c2ccc3[nH]c(CCCc4ccc(C(C)(C)C)cc4)nc3c2)c1` [Cpd 30, 2-[3-(4-tert-butyl-phenyl)-propyl]-5-m-tolyl-1H-benzimidazole], for which the inhibition at 1 µM worked out at 10%.

Consider `NS(=O)(=O)c1ccccc1-c1ccc2[nH]c(CCc3c(F)cccc3F)nc2c1` [Cpd 386, 2-{2-[2-(2,6-difluoro-phenyl)-ethyl]-1H-benzimidazol-5-yl}-benzenesulfonamide], for which the IC50 turned out to be 43 nM and the inhibition at 1 µM amounted to 96%.

`NS(=O)(=O)c1ccccc1-c1ccc2[nH]c(/C=C/c3cc(F)cc(F)c3)nc2c1` [Cpd 361, (E)-2-{2-[2-(3,5-difluoro-phenyl)-vinyl]-1H-benzimidazol-5-yl}-benzenesulfonamide]: the 50% inhibitory concentration (IC50) is 27 nM and the inhibition at 1 µM is 97%.

Take `CC(C)(O)c1ccccc1-c1ccc2[nH]c(C3CC3c3ccc(C(F)(F)F)cc3)nc2c1` (stereo not drawn) [Cpd 471, 2-(2-{2-[2-(4-trifluoromethyl-phenyl)-cyclopropyl]-1H-benzimidazol-5-yl}-phenyl)-propan-2-ol]: the IC50 was found to be 10 nM and the inhibition at 1 µM is 100%.

With `CNS(=O)(=O)c1ccccc1-c1ccc2[nH]c(/C=C/c3cccc(F)c3F)nc2c1` [Cpd 325, (E)-2-{2-[2-(2,3-difluoro-phenyl)-vinyl]-1H-benzimidazol-5-yl}-N-methyl-benzenesulfonamide], the inhibition at 1 µM came out at 73%.

For `CC(O)c1ccccc1-c1ccc2[nH]c(/C=C/c3ccc(S(=O)(=O)C(F)(F)F)cc3)nc2c1` (stereo not drawn) [Cpd 45, (E)-1-(2-{2-[2-(4-trifluoromethanesulfonyl-phenyl)-vinyl]-1H-benzimidazol-5-yl}-phenyl)-ethanol], the IC50 came to 16 nM and the inhibition at 1 µM is 100%.

With `CN(C)S(=O)(=O)c1ccccc1-c1ccc2[nH]c(CCc3ccc(C(F)(F)F)cc3)nc2c1` [Cpd 399, N,N-dimethyl-2-{2-[2-(4-trifluoromethyl-phenyl)-ethyl]-1H-benzimidazol-5-yl}-benzenesulfonamide], the IC50 worked out at 3 nM and the inhibition at 1 µM turned out to be 97%.

Consider `CC(C)(O)c1ccccc1-c1ccc2[nH]c(/C=C/c3ccc(S(C)(=O)=O)cc3)nc2c1` [Cpd 84, (E)-2-(2-{2-[2-(4-methanesulfonyl-phenyl)-vinyl]-1H-benzimidazol-5-yl}-phenyl)-propan-2-ol], for which the IC50 is 40 nM and the inhibition at 1 µM worked out at 100%.

Regarding `CC(=O)Nc1cccc(-c2ccc3[nH]c(/C=C/c4ccc(F)c(F)c4)nc3c2)c1` [Cpd 25, (E)-N-(3-{2-[2-(3,4-difluoro-phenyl)-vinyl]-1H-benzimidazol-5-yl}-phenyl)-acetamide], the inhibition at 1 µM came to 4%.

In the case of `NC(=O)c1ccccc1-c1ccc2[nH]c(/C=C/c3ccc(OC(F)(F)F)cc3)nc2c1` [Cpd 19, (E)-2-{2-[2-(4-trifluoromethoxy-phenyl)-vinyl]-1H-benzimidazol-5-yl}-benzamide], the inhibition at 1 µM was determined as 32%.

Regarding `CNS(=O)(=O)c1ccccc1-c1ccc2[nH]c(/C=C/c3ccc(F)c(F)c3F)nc2c1` [Cpd 323, (E)-N-methyl-2-{2-[2-(2,3,4-trifluoro-phenyl)-vinyl]-1H-benzimidazol-5-yl}-benzenesulfonamide], the IC50 came out at 40 nM and the inhibition at 1 µM is 97%.

On to `CN(C)Cc1ccccc1-c1ccc2[nH]c(/C=C/c3ccc(C(F)(F)F)cc3)nc2c1` [Cpd 483, (E)-dimethyl-(2-{2-[2-(4-trifluoromethyl-phenyl)-vinyl]-1H-benzimidazol-5-yl}-benzyl)-amine], for which the inhibition at 1 µM is 21%.

For `CS(=O)(=O)Nc1ccccc1-c1ccc2[nH]c(/C=C/c3ccc(OCC(F)(F)F)cc3)nc2c1` [Cpd 95, (E)-N-[2-(2-{2-[4-(2,2,2-trifluoro-ethoxy)-phenyl]-vinyl}-1H-benzimidazol-5-yl)-phenyl]-methanesulfonamide], the IC50 was 301 nM and the inhibition at 1 µM was found to be 81%.

For `NS(=O)(=O)c1ccccc1-c1ccc2[nH]c(/C=C/c3ccc(Cl)cc3F)nc2c1` [Cpd 428, (E)-2-{2-[2-(4-chloro-2-fluoro-phenyl)-vinyl]-1H-benzimidazol-5-yl}-benzenesulfonamide], the IC50 amounted to 7 nM and the inhibition at 1 µM is 100%.

On to `CC(C)(C)c1ccc(/C=C/c2nc3cc(-c4cccc(C(N)=O)c4)ccc3[nH]2)cc1` [Cpd 6, (E)-3-{2-[2-(4-tert-butyl-phenyl)-vinyl]-1H-benzimidazol-5-yl}-benzamide], for which the inhibition at 1 µM came to 12%.

On to `CNS(=O)(=O)c1ccccc1-c1ccc2[nH]c(/C=C/c3ccccc3Br)nc2c1` [Cpd 348, (E)-2-{2-[2-(2-bromo-phenyl)-vinyl]-1H-benzimidazol-5-yl}-N-methyl-benzenesulfonamide], for which the IC50 turned out to be 162 nM and the inhibition at 1 µM was found to be 86%.

As for `CC(=O)c1ccccc1-c1cc2nc(/C=C/c3ccc(C(F)(F)F)cc3)[nH]c2cc1F` [Cpd 62, (E)-1-(2-{6-fluoro-2-[2-(4-trifluoromethyl-phenyl)-vinyl]-1H-benzimidazol-5-yl}-phenyl)-ethanone], the IC50 was determined as 200 nM and the inhibition at 1 µM turned out to be 100%.

For `NS(=O)(=O)c1ccccc1-c1ccc2[nH]c(/C=C/c3ccccc3C(F)(F)F)nc2c1` [Cpd 364, (E)-2-{2-[2-(2-trifluoromethyl-phenyl)-vinyl]-1H-benzimidazol-5-yl}-benzenesulfonamide], the IC50 was 65 nM and the inhibition at 1 µM is 97%.

With `CC(C)(O)c1ccccc1-c1ccc2[nH]c(/C=C/c3ccccc3C(F)(F)F)nc2c1` [Cpd 482, (E)-2-(2-{2-[2-(2-trifluoromethyl-phenyl)-vinyl]-1H-benzimidazol-5-yl}-phenyl)-propan-2-ol], the IC50 worked out at 13 nM and the inhibition at 1 µM was 100%.

Take `OCc1ccccc1-c1ccc2[nH]c(/C=C/c3ccc(SC(F)(F)F)cc3)nc2c1` [Cpd 35, (E)-(2-{2-[2-(4-trifluoromethylsulfanyl-phenyl)-vinyl]-1H-benzimidazol-5-yl}-phenyl)-methanol]: the IC50 is 41 nM and the inhibition at 1 µM was 100%.

For `CNS(=O)(=O)c1ccccc1-c1ccc2[nH]c(/C=C/c3ccc(C#N)cc3)nc2c1` [Cpd 451, (E)-2-{2-[2-(4-cyano-phenyl)-vinyl]-1H-benzimidazol-5-yl}-N-methyl-benzenesulfonamide], the IC50 was 28 nM and the inhibition at 1 µM is 101%.

On to `NS(=O)(=O)c1ccccc1-c1ccc2[nH]c(CCc3ccc(C(F)(F)F)cc3)nc2c1` [Cpd 130, 2-{2-[2-(4-trifluoromethyl-phenyl)-ethyl]-1H-benzimidazol-5-yl}-benzenesulfonamide], for which the IC50 was 6 nM and the inhibition at 1 µM was found to be 100%.

`CNS(=O)(=O)c1ccccc1-c1ccc2[nH]c(/C=C/c3ccc(F)c(C(F)(F)F)c3)nc2c1` [Cpd 331, (E)-2-{2-[2-(4-fluoro-3-trifluoromethyl-phenyl)-vinyl]-1H-benzimidazol-5-yl}-N-methyl-benzenesulfonamide]: the IC50 was determined as 43 nM and the inhibition at 1 µM amounted to 97%.

Regarding `CNS(=O)(=O)c1ccccc1-c1ccc2[nH]c(/C=C/c3cccc(C(F)(F)F)c3F)nc2c1` [Cpd 332, (E)-2-{2-[2-(2-fluoro-3-trifluoromethyl-phenyl)-vinyl]-1H-benzimidazol-5-yl}-N-methyl-benzenesulfonamide], the IC50 was 49 nM and the inhibition at 1 µM is 98%.

Turning to `CNS(=O)(=O)c1ccccc1-c1ccc2[nH]c(/C=C/c3cccc(Br)c3)nc2c1` [Cpd 338, (E)-2-{2-[2-(3-bromo-phenyl)-vinyl]-1H-benzimidazol-5-yl}-N-methyl-benzenesulfonamide], the 50% inhibitory concentration (IC50) turned out to be 104 nM and the inhibition at 1 µM worked out at 96%.

Turning to `CNS(=O)(=O)c1ccccc1-c1ccc2[nH]c(/C=C/c3ccc(F)cc3C(F)(F)F)nc2c1` [Cpd 330, (E)-2-{2-[2-(4-fluoro-2-trifluoromethyl-phenyl)-vinyl]-1H-benzimidazol-5-yl}-N-methyl-benzenesulfonamide], the IC50 was 131 nM and the inhibition at 1 µM was found to be 85%.

On to `CNS(=O)(=O)c1ccccc1-c1ccc2[nH]c(/C=C/c3c(F)cccc3Cl)nc2c1` [Cpd 336, (E)-2-{2-[2-(2-chloro-6-fluoro-phenyl)-vinyl]-1H-benzimidazol-5-yl}-N-methyl-benzenesulfonamide], for which the IC50 was determined as 240 nM and the inhibition at 1 µM is 89%.

As for `CNS(=O)(=O)c1ccccc1-c1ccc2[nH]c(/C=C/c3ccc(C(C)=O)cc3)nc2c1` [Cpd 456, (E)-2-{2-[2-(4-acetyl-phenyl)-vinyl]-1H-benzimidazol-5-yl}-N-methyl-benzenesulfonamide], the IC50 came out at 45 nM and the inhibition at 1 µM came to 100%.

On to `NS(=O)(=O)c1ccccc1-c1ccc2[nH]c(/C=C/c3ccc(C(F)(F)F)cc3F)nc2c1` [Cpd 424, (E)-2-{2-[2-(2-fluoro-4-trifluoromethyl-phenyl)-vinyl]-1H-benzimidazol-5-yl}-benzenesulfonamide], for which the IC50 amounted to 11 nM and the inhibition at 1 µM turned out to be 99%.

`NS(=O)(=O)c1ccc(C(F)(F)F)cc1-c1ccc2[nH]c(CCc3ccc(C(F)(F)F)cc3)nc2c1` [Cpd 445, 4-trifluoromethyl-2-{2-[2-(4-trifluoromethyl-phenyl)-ethyl]-1H-benzimidazol-5-yl}-benzenesulfonamide]: the IC50 is 20 nM and the inhibition at 1 µM is 96%.

On to `CC(C)(C)c1ccc(/C=C/c2nc3cc(-c4cccc(O)c4)c(C(F)(F)F)cc3[nH]2)cc1` [Cpd 49, (E)-3-{2-[2-(4-tert-butyl-phenyl)-vinyl]-6-trifluoromethyl-1H-benzimidazol-5-yl}-phenol], for which the inhibition at 1 µM stood at 16%.
